The values below come from PubChem BioAssay AID330 (DTP/NCI, 2004).

SMILES strings stand for the structures. “And” between values parts separate entries of the source, which are not always exact repeats. Identical values can stand only once. Inconclusive results and toxic doses are left out.

This assay concerns P388 leukemia ip, CD2F1 mice, survival T/C. Description: NCI In Vivo Anticancer Drug Screen. Data for tumor model P388 Leukemia (intraperitoneal) in CD2F1 (CDF1) mice. The settings on record: endpoint: median survival time, higher = longer survival. The method in brief:
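Mice carrying the transplanted tumor received test compound or vehicle. Survival was recorded in each group, and the value is the treated-group measurement divided by that of the vehicle-treated control group.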

Setting [1] is: dose: 60.0 mg/kg/injection, schedule: Q01DX005 (ip), vehicle: saline with Tween-80.
Where [2] appears, read: dose: 120.0 mg/kg/injection, schedule: Q01DX005 (ip), vehicle: saline with Tween-80.
[3] abbreviates: dose: 240.0 mg/kg/injection, schedule: Q01DX005 (ip), vehicle: saline with Tween-80.
Where [4] appears, read: dose: 100.0 mg/kg/injection, schedule: Q04DX003 (ip), vehicle: saline with Tween-80.

For `CSCS(=O)C[C@H](CO)NC(=O)/C=C/c1c(C)[nH]c(=O)[nH]c1=O` (stereo partly drawn), the T/C (dose: 0.08 mg/kg/injection, schedule: Q01DX009 (ip), vehicle: other) was 97 % of control; the T/C (dose: 0.4 mg/kg/injection, schedule: Q01DX009 (ip), vehicle: water) is 94 % of control; the T/C (dose: 0.5 mg/kg/injection, schedule: Q01DX009 (ip), vehicle: water) was 95 % of control.

With `COC(=O)c1nn2c(=O)n(C(C)=O)c3ccccc3c2c1C(=O)OC`, the T/C is, setting by setting: under setting [1], 108 % of control; under setting [2], 109 % of control; under setting [3], 108 % of control.

With `CCOC(=O)c1oc2ccccc2c1CN(CCO)CCO`, the T/C (dose: 50.0 mg/kg/injection, schedule: Q01DX005 (ip), vehicle: saline with Tween-80) was 98 % of control; the T/C (dose: 100.0 mg/kg/injection, schedule: Q01DX005 (ip), vehicle: saline with Tween-80) was 100 % of control; the T/C (dose: 200.0 mg/kg/injection, schedule: Q01DX005 (ip), vehicle: saline with Tween-80) is 105 % of control.

For the compound `CN(C)c1ccc(Nc2c3ccccc3nc3ccccc23)cc1`, the T/C by setting is: (dose: 12.5 mg/kg/injection, schedule: Q04DX002 (ip), vehicle: distilled water + Tween-80) 113 % of control; (dose: 13.0 mg/kg/injection, schedule: Q04DX003 (ip), vehicle: saline with Tween-80) 100 % of control and 103 % of control; (dose: 21.6 mg/kg/injection, schedule: Q04DX003 (ip), vehicle: saline with Tween-80) 107 % of control and 111 % of control; (dose: 25.0 mg/kg/injection, schedule: Q04DX002 (ip), vehicle: distilled water + Tween-80) 150 % of control and 156 % of control; (dose: 25.9 mg/kg/injection, schedule: Q04DX003 (ip), vehicle: saline) 109 % of control; (dose: 36.0 mg/kg/injection, schedule: Q04DX003 (ip), vehicle: saline with Tween-80) 110 % of control and 111 % of control. Further, the T/C by setting is: (dose: 50.0 mg/kg/injection, schedule: Q04DX002 (ip), vehicle: distilled water + Tween-80) 185 % of control and 196 % of control; under setting [4], 157 % of control; (dose: 120.0 mg/kg/injection, schedule: Q04DX003 (ip), vehicle: saline) 179 % of control.

With `CN(C)C1=Nc2ccccc2NC(=O)C1`, the T/C is 105 % of control (dose: 50.0 mg/kg/injection, schedule: Q01DX005 (ip), vehicle: Klucel (hydroxypropylcellulose) (HPC)); 105 % of control (dose: 100.0 mg/kg/injection, schedule: Q01DX005 (ip), vehicle: Klucel (hydroxypropylcellulose) (HPC)); 105 % of control (dose: 200.0 mg/kg/injection, schedule: Q01DX005 (ip), vehicle: Klucel (hydroxypropylcellulose) (HPC)).

Take `O=c1c2ccc(Cl)cc2nc2n1OCC2`: the T/C by setting is: (dose: 100.0 mg/kg/injection, schedule: Q01DX001 (ip), vehicle: Klucel (hydroxypropylcellulose) (HPC)) 106 % of control; (dose: 200.0 mg/kg/injection, schedule: Q01DX001 (ip), vehicle: Klucel (hydroxypropylcellulose) (HPC)) 100 % of control; (dose: 400.0 mg/kg/injection, schedule: Q01DX001 (ip), vehicle: Klucel (hydroxypropylcellulose) (HPC)) 101 % of control.

For `CNC(=S)NNc1nc(N(C)C)nc(N(C)C)n1`, the T/C by setting is: (dose: 100.0 mg/kg/injection, schedule: Q04DX002 (ip), vehicle: saline with Tween-80) 98 % of control; (dose: 200.0 mg/kg/injection, schedule: Q04DX002 (ip), vehicle: saline with Tween-80) 92 % of control; (dose: 400.0 mg/kg/injection, schedule: Q04DX002 (ip), vehicle: saline with Tween-80) 93 % of control.

With `CC(C)(Sc1cc(Cl)c(Cl)c(Cl)c1)C(=O)OCCN1CCOCC1`, the T/C is, setting by setting: under setting [1], 101 % of control and 88 % of control; under setting [2], 101 % of control; under setting [3], 86 % of control and 94 % of control.

Consider `O=C(O)/C=C(O)/C=C/c1ccccc1`, for which the T/C was 92 % of control under setting [4]; 101 % of control (dose: 200.0 mg/kg/injection, schedule: Q04DX003 (ip), vehicle: saline with Tween-80); 101 % of control (dose: 400.0 mg/kg/injection, schedule: Q04DX003 (ip), vehicle: saline with Tween-80).

Consider `CSC(SC)(C(=O)O)c1cc(C)no1`, for which the T/C reads like this: under setting [1], 107 % of control; under setting [2], 102 % of control; under setting [3], 102 % of control.

As for `C1CCC2(CC1)SSC1(CCCCC1)S2`, the T/C is 109 % of control (dose: 100.0 mg/kg/injection, schedule: Q04DX003 (ip), vehicle: other); 109 % of control (dose: 200.0 mg/kg/injection, schedule: Q04DX003 (ip), vehicle: other); 113 % of control (dose: 400.0 mg/kg/injection, schedule: Q04DX003 (ip), vehicle: other).

On to `COc1ccc2nc3ccccc3c(NCCCCCCNc3c4ccccc4nc4ccc(OC)cc34)c2c1`, for which the T/C was 108 % of control (dose: 0.62 mg/kg/injection, schedule: Q## X009 (ip), vehicle: lactic acid); 100 % of control (dose: 0.63 mg/kg/injection, schedule: Q01DX009 (ip), vehicle: other); 107 % of control (dose: 1.25 mg/kg/injection, schedule: Q01DX009 (ip), vehicle: other); 111 % of control (dose: 1.25 mg/kg/injection, schedule: Q## X009 (ip), vehicle: lactic acid); 100 % of control (dose: 2.5 mg/kg/injection, schedule: Q01DX009 (ip), vehicle: other); 119 % of control (dose: 2.5 mg/kg/injection, schedule: Q## X009 (ip), vehicle: lactic acid). Further, the T/C (dose: 3.75 mg/kg/injection, schedule: Q01DX009 (ip), vehicle: other) is 109 % of control; the T/C (dose: 5.0 mg/kg/injection, schedule: Q01DX009 (ip), vehicle: other) was 116 % of control; the T/C (dose: 5.0 mg/kg/injection, schedule: Q## X009 (ip), vehicle: lactic acid) is 113 % of control.
